{"source": "ChEMBL document CHEMBL1158655", "about": "“Plant anticancer agents. IX. Constituents of Hyptis tomentosa” (1979)", "tested_on": "KB", "assay": "Cytotoxicity against human KB cells", "format": "functional", "conditions": "read-out: ED50 (the source's name)", "data": [{"smiles": "COc1ccc(-c2cc(=O)c3c(O)c(OC)c(OC)cc3o2)cc1OC", "values": [{"measurement": "EC50", "result": "> 100", "unit": "µg/mL"}]}, {"smiles": "COc1ccc(-c2oc3c(OC)c(OC)c(OC)c(O)c3c(=O)c2OC)cc1", "note": "[5-HYDROXYAURANETIN]", "values": [{"measurement": "EC50", "result": 1.8, "unit": "µg/mL"}]}, {"smiles": "COc1cc([C@@H]2c3cc4c(cc3C[C@H]3COC(=O)[C@@H]32)OCO4)cc(OC)c1OC", "note": "[DESOXYPODOPHYLLOTOXIN]", "values": [{"measurement": "EC50", "result": 0.032, "unit": "µg/mL"}]}, {"smiles": "COc1ccc(-c2cc(=O)c3c(O)c(OC)c(OC)cc3o2)cc1O", "note": "[EUPATORIN]", "values": [{"measurement": "EC50", "result": "> 50", "unit": "µg/mL"}]}, {"smiles": "COc1ccc(-c2cc(=O)c3c(O)c(OC)c(OC)c(OC)c3o2)cc1", "note": "[GARDENIN B]", "values": [{"measurement": "EC50", "result": 6, "unit": "µg/mL"}]}, {"smiles": "c1cc2c(cc1[C@H]1OC[C@H]3[C@@H]1CO[C@@H]3c1ccc3c(c1)OCO3)OCO2", "note": "[SESAMIN]", "values": [{"measurement": "EC50", "result": "> 100", "unit": "µg/mL"}]}]}
